Experimental data reported in US20260138958A1, “SUBSTITUTED N-PHENYLURACILS AND SALTS THEREOF, AND USE THEREOF AS HERBICIDAL ACTIVE SUBSTANCES” (Bayer Aktiengesellschaft, priority 2022, published 2026).

Experiments:
Assay type in all cases: in vivo
[1] = test system: Triticum aestivum (TRZAS); experiment: Post-emergence crop plant compatibility, greenhouse pot test; conditions: Triticum aestivum, in vivo
Method in brief: (§1)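 Crops grown in sandy loam in the greenhouse were sprayed post-emergence at the one-leaf stage, 2–3 weeks after sowing, with WP or EC formulations plus 0.5% additive at 600 l/ha water. Damage was rated visually after about 3 weeks against untreated controls (0% = like control, 100% = dead).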

harmful plants = experiment: Post-emergence herbicidal action, summary statements over several weeds; conditions: 20 g or less per hectare, ALOMY, ECHCG, AVEFA, VERPE
Protocol: (§2) Seeds of monocotyledonous and dicotyledonous weeds and crop plants were placed in sandy loam in plastic or wood-fibre pots, covered with soil and cultivated in a greenhouse under controlled growth conditions. 2 to 3 weeks after sowing, the test plants were treated at the one-leaf stage. The compounds of the invention, formulated in the form of wettable powders (WP) or as emulsion concentrates (EC), were then sprayed onto the green parts of the plants as aqueous suspension or emulsion with addition of 0.5% additive at a water application rate of 600 l/ha (converted). After the test plants had been kept in the greenhouse under optimum growth conditions for about 3 weeks, the activity of the preparations was rated visually in comparison to untreated controls. For example, 100% activity=the plants have died, 0% activity=like control plants.

[2] = test system: Polygonum convolvulus (POLCO); experiment: Post-emergence herbicidal action, greenhouse pot test; conditions: Fallopia convolvulus, 504 h; for pest or weed control at 5 g/ha: read-out: Post-emergence effect at 5 g/ha against POLCO in %; for pest or weed control at 20 g/ha: read-out: Post-emergence effect at 20 g/ha against POLCO in %
Method in brief: (§3)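 Weeds grown in sandy loam under controlled greenhouse conditions were sprayed at the one-leaf stage, 2 to 3 weeks after sowing, with WP or EC formulations as aqueous suspension or emulsion plus 0.5% additive at 600 l/ha water. Damage was scored visually after about 3 weeks versus untreated controls (0% = like control, 100% = dead).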

[3] = test system: Alopecurus myosuroides (ALOMY); experiment: as above; conditions: for pest or weed control at 20 g/ha: Alopecurus myosuroides, 504 h, read-out: Post-emergence effect at 20 g/ha against ALOMY in %
Method in brief: as §3

Veronica persica (VERPE) = experiment: as above; conditions: for pest or weed control at 5 g/ha / pest or weed control at 20 g/ha: Veronica persica, 504 h; for pest or weed control at 5 g/ha: read-out: Post-emergence effect at 5 g/ha against VERPE in %; for pest or weed control at 20 g/ha: read-out: Post-emergence effect at 20 g/ha against VERPE in %
Method in brief: as §3

[4] = test system: Abutilon theophrasti (ABUTH); experiment: as above; conditions: for pest or weed control at 5 g/ha / pest or weed control at 20 g/ha: Abutilon theophrasti, 504 h; for pest or weed control at 5 g/ha: read-out: Post-emergence effect at 5 g/ha against ABUTH in %; for pest or weed control at 20 g/ha: read-out: Post-emergence effect at 20 g/ha against ABUTH in %
Method in brief: as §3

[5] = test system: Tripleurospermum inodorum (MATIN); experiment: as above; conditions: Tripleurospermum inodorum, 504 h, 20 g/ha, read-out: Post-emergence effect at 20 g/ha against MATIN in %
Method in brief: as §3

[6] = test system: Pharbitis purpurea (PHBPU); experiment: as above; conditions: for pest or weed control at 5 g/ha / pest or weed control at 20 g/ha: Ipomoea purpurea, 504 h; for pest or weed control at 5 g/ha: read-out: Post-emergence effect at 5 g/ha against PHBPU in %; for pest or weed control at 20 g/ha: read-out: Post-emergence effect at 20 g/ha against PHBPU in %
Method in brief: as §3

[7] = test system: Digitaria sanguinalis (DIGSA); experiment: as above
Method in brief: as §3

Viola tricolor (VIOTR) = experiment: as above; conditions: for pest or weed control at 20 g/ha: Viola tricolor, 504 h, read-out: Post-emergence effect at 20 g/ha against VIOTR in %
Method in brief: as §3

[8] = test system: Echinochloa crus-galli (ECHCG); experiment: as above; conditions: for pest or weed control at 20 g/ha: Echinochloa crus-galli, 504 h, read-out: Post-emergence effect at 20 g/ha against ECHCG in %
Method in brief: as §3

Bassia scoparia (KCHSC) = experiment: as above
Method in brief: as §3

Setaria viridis (SETVI) = experiment: as above; conditions: for pest or weed control at 5 g/ha / pest or weed control at 20 g/ha: Setaria viridis, 504 h; for pest or weed control at 5 g/ha: read-out: Post-emergence effect at 5 g/ha against SETVI in %; for pest or weed control at 20 g/ha: read-out: Post-emergence effect at 20 g/ha against SETVI in %
Method in brief: as §3

[9] = test system: Amaranthus retroflexus (AMARE); experiment: as above; conditions: Amaranthus retroflexus, 504 h; for pest or weed control at 1.25 g/ha: read-out: Post-emergence effect at 1.25 g/ha against AMARE in %; for pest or weed control at 5 g/ha: read-out: Post-emergence effect at 5 g/ha against AMARE in %; for pest or weed control at 20 g/ha: read-out: Post-emergence effect at 20 g/ha against AMARE in %
Method in brief: as §3

crop plants = experiment: Post-emergence crop plant compatibility, summary statements over several crops; conditions: 5 g or less per hectare, ORYSA, ZEAMX, TRZAS
Protocol: as §2
The observed effects on selected crop plants are reported here in comparison to the untreated controls (values in %).

Zea mays (ZEAMX) = experiment: Post-emergence crop plant compatibility, greenhouse pot test; conditions: Zea mays, in vivo
Method in brief: as §1

Cn1c(C(F)(F)F)cc(=O)n(-c2cc(Oc3ccccc3OCC(=O)OCC3CCCCC3)c(Cl)cc2F)c1=O [I.7-14]
Post-emergence effect at 1.25 g/ha against TRZAS in % [1]: 20% | herbicidal efficacy by comparison with a-27, a-29 or a generically encompassed structure (WO2002/098227) (harmful plants): distinctly improved herbicidal efficacy | pest or weed control at 5 g/ha [2]: 100% | pest or weed control at 20 g/ha [2]: 100% | pest or weed control at 20 g/ha [3]: 100% | Post-emergence effect at 1.25 g/ha against VERPE in % (Veronica persica (VERPE)): 100% | VERPE (efficacy in %) (Veronica persica (VERPE); Table B4 comparison, application rate 1.25 g/ha): 100% | pest or weed control at 5 g/ha (Veronica persica (VERPE)): 100% | pest or weed control at 20 g/ha (Veronica persica (VERPE)): 100% | Post-emergence effect at 1.25 g/ha against ABUTH in % [4]: 100% | pest or weed control at 5 g/ha [4]: 100% | pest or weed control at 20 g/ha [4]: 100% | pest or weed control at 20 g/ha [5]: 90% | Post-emergence effect at 1.25 g/ha against PHBPU in % [6]: 100% | pest or weed control at 5 g/ha [6]: 100% | pest or weed control at 20 g/ha [6]: 100% | Post-emergence effect at 5 g/ha against DIGSA in % [7]: 100% | Post-emergence effect at 20 g/ha against DIGSA in % [7]: 100% | Post-emergence effect at 1.25 g/ha against VIOTR in % (Viola tricolor (VIOTR)): 100% | Post-emergence effect at 5 g/ha against VIOTR in % (Viola tricolor (VIOTR)): 100% | pest or weed control at 20 g/ha (Viola tricolor (VIOTR)): 100% | Post-emergence effect at 1.25 g/ha against ECHCG in % [8]: 90% | Post-emergence effect at 5 g/ha against ECHCG in % [8]: 100% | pest or weed control at 20 g/ha [8]: 100% | Post-emergence effect at 1.25 g/ha against KCHSC in % (Bassia scoparia (KCHSC)): 100% | Post-emergence effect at 5 g/ha against KCHSC in % (Bassia scoparia (KCHSC)): 100% | Post-emergence effect at 20 g/ha against KCHSC in % (Bassia scoparia (KCHSC)): 100% | Post-emergence effect at 1.25 g/ha against SETVI in % (Setaria viridis (SETVI)): 100% | pest or weed control at 5 g/ha (Setaria viridis (SETVI)): 100% | pest or weed control at 20 g/ha (Setaria viridis (SETVI)): 100% | pest or weed control at 1.25 g/ha [9]: 100% | pest or weed control at 5 g/ha [9]: 100% | pest or weed control at 20 g/ha [9]: 100% | compatibility with crop plants by comparison with a-27, a-29 or a generically encompassed structure (WO2002/098227) (crop plants): distinctly improved compatibility

Cn1c(C(F)(F)F)cc(=O)n(-c2cc(Oc3ccccc3OCC(=O)OCC3CCCCCC3)c(Cl)cc2F)c1=O [I.7-16]
Post-emergence effect at 1.25 g/ha against TRZAS in % [1]: 10% | Post-emergence effect at 20 g/ha against TRZAS in % [1]: 20% | Post-emergence effect at 1.25 g/ha against ZEAMX in % (Zea mays (ZEAMX)): 20% | herbicidal efficacy by comparison with a-27, a-29 or a generically encompassed structure (WO2002/098227) (harmful plants): distinctly improved herbicidal efficacy | pest or weed control at 5 g/ha [2]: 100% | pest or weed control at 20 g/ha [2]: 100% | Post-emergence effect at 5 g/ha against ALOMY in % ([3]; 5 g/ha): 90% | pest or weed control at 20 g/ha [3]: 100% | Post-emergence effect at 1.25 g/ha against VERPE in % (Veronica persica (VERPE)): 80% | pest or weed control at 5 g/ha (Veronica persica (VERPE)): 100% | pest or weed control at 20 g/ha (Veronica persica (VERPE)): 100% | Post-emergence effect at 1.25 g/ha against ABUTH in % [4]: 80% | pest or weed control at 5 g/ha [4]: 100% | pest or weed control at 20 g/ha [4]: 100% | pest or weed control at 20 g/ha [5]: 90% | Post-emergence effect at 1.25 g/ha against PHBPU in % [6]: 80% | pest or weed control at 5 g/ha [6]: 100% | pest or weed control at 20 g/ha [6]: 100% | Post-emergence effect at 1.25 g/ha against DIGSA in % ([7]; 1.25 g/ha): 90% | Post-emergence effect at 5 g/ha against DIGSA in % [7]: 100% | Post-emergence effect at 20 g/ha against DIGSA in % [7]: 100% | Post-emergence effect at 1.25 g/ha against VIOTR in % (Viola tricolor (VIOTR)): 100% | Post-emergence effect at 5 g/ha against VIOTR in % (Viola tricolor (VIOTR)): 100% | pest or weed control at 20 g/ha (Viola tricolor (VIOTR)): 100% | Post-emergence effect at 1.25 g/ha against ECHCG in % [8]: 100% | Post-emergence effect at 5 g/ha against ECHCG in % [8]: 100% | pest or weed control at 20 g/ha [8]: 100% | ECHCG (efficacy in %) ([8]; Table B5 comparison, application rate 1.25 g/ha): 100% | Post-emergence effect at 1.25 g/ha against KCHSC in % (Bassia scoparia (KCHSC)): 100% | Post-emergence effect at 5 g/ha against KCHSC in % (Bassia scoparia (KCHSC)): 100% | Post-emergence effect at 20 g/ha against KCHSC in % (Bassia scoparia (KCHSC)): 100% | Post-emergence effect at 1.25 g/ha against SETVI in % (Setaria viridis (SETVI)): 100% | pest or weed control at 5 g/ha (Setaria viridis (SETVI)): 100% | pest or weed control at 20 g/ha (Setaria viridis (SETVI)): 100% | pest or weed control at 1.25 g/ha [9]: 100% | pest or weed control at 5 g/ha [9]: 100% | pest or weed control at 20 g/ha [9]: 100% | compatibility with crop plants by comparison with a-27, a-29 or a generically encompassed structure (WO2002/098227) (crop plants): distinctly improved compatibility
